What was measured:
[1] = tested on: xenografted FaDu head and neck squamous carcinoma cells; assay: In vivo tumour mass size in mice bearing xenografted FaDu cells (benefit); conditions: daily intratumoral EpigenAU/11, intraperitoneal cisplatin on alternating days; treated day 27; vehicle 1.38
Protocol: Data obtained by animal testing, considered in the context of benefit, is the tumour mass size reached at the end of in vivo test for each treatment.
Data were calculated as “Reduction in the size of tumour mass” by the formula:
1−[“Tumour mass size collected from treated animals (day of observation: 27)/Tumour mass size collected from untreated animals (day of observation: 19)]
(§1) The benefit (intended as therapeutic activity) was instead evaluated by taking into consideration the reduction in size of the tumour mass compared to the untreated tumour. For this purpose, immunocompromised mice bearing xenografted FaDu head and neck squamous carcinoma cells were included in the study once tumours reached a volume of 100 mm^3. Mice received daily intratumoral injections of EpigenAU/11 and intraperitoneal cisplatin on alternating days.

[2] = In vivo body weight (potential weight loss) at the end of experimentation; set-up: species or system mice; conditions: mouse
Protocol: (§2) The risk (intended as side effects) was estimated through the observation of behavioural parameters (impacting the behaviour itself, the locomotor system, muscle strength and nervous reflexes) and through the potential weight loss of the animal.
(§3) Data obtained by animal testing, considered in the context of the risk, are behavioural parameters and body weight loss at the end of experimentation.
The potential weight loss of the treated animals was also assessed.” Data were processed using the formula: […]
as §1

[3] = In vivo observation of behavioural parameters (risk, side effects) in mouse model; set-up: species or system mice
Excerpt: as §2, §3
The behavioural parameters monitored are listed below: • 1. Loss of Spontaneous activity • 2. Loss of Cleaning • 3. Loss of Curiosity • 4. Loss of Reactivity • 5. Loss of Straightening reflex • 6. Loss of Physical strength • 7. Impairment of Palpebral opening • 8. Palpebral reflex • 9. Tremors • 10. Pallor • 11. Stereotypies • 12. Passivity
The values of the parameters 1-8 are normalized as: “Not treated animal value” (always equal to 0)+“Treated animal value”.
The values of the parameters 9-12 are normalized as: “Not treated animal value”−“Treated animal value”.
as §1

## N.N.[Cl][Pt][Cl] [Cisplatin]
[1]
  Size of tumor masses (Tumor viability), Mean: 0.50
[2]
  Body weight (Nutritional and metabolic system), Mean: 29.12
[3]
  Cleaning (Behaviour), Mean: 2.90
  Curiosity (Behaviour), Mean: 2.60
  Pallor (Nervous system), Mean: 2.00
  Palpebral opening (Nervous system), Mean: 2.00
  Palpebral reflex (Nervous system), Mean: 2.80
  Passivity (Behaviour), Mean: 1.60
  Physical strenght (Muscle), Mean: 2.70
  Reactivity (Behaviour), Mean: 2.20
  Spontaneous activity (Behaviour), Mean: 2.50
  Stereolipies (Locomotor system), Mean: 0.00
  Straightening reflex (Locomotor system), Mean: 2.60
  Tremors (Nervous system), Mean: 0.80
